Reference: patent US20090220490A1, “Compositions and Assays for Inhibiting HCV Infection” (priority 2006, published 2009)
Entries after “also recorded” stand apart in the source; their conditions may differ. Where a SMILES comes first, the peptide text is derived from it. The star is where a group is joined. FITC = O=C1OC2(c3ccc(O)cc3Oc3cc(O)ccc32)c2ccc(NC(=S)*)cc21

How the values were obtained:
Assay type in all cases: cell-based
HCV genotype 1 = experiment: HCV replication (HCV RNA expression) in serum-derived HCV-infected human hepatocyte cultures
From the text: (§1) Sera from 25 HCV-infected patients and 3 control subjects were obtained at the VA San Diego Healthcare System Clinical Laboratory. The subject population included individuals with chronic HCV infection, viral load>200,000 IU/ml and genotypes 1 (N: 15), 2 (N: 3), 3 (N: 4), or 4 (N: 3), but negative for Hepatitis A and B, CMV and HIV. Control sera were obtained from subjects negative for Hepatitis A, B and C, CMV and HIV. In different experiments, the inoculums fluctuated between 3,728 and 68,000 HCV viral particles.
(§2) The hepatocytes were cultured for serum-derived HCV infection under the following conditions: 1) the matrix was rat-tail collagen (BD); 2) the collagen matrix was prepared within 24 hr of hepatocyte plating, at a concentration of 50 μg/ml or greater; 3) the culture plates were coated with polylysine; 4) the rinsing of the matrix was minimal; 5) the suspended hepatocytes were allowed to attach in 20% fetal calf serum for not more than 18 hr; 6) the hepatocyte-specific media was given for at least 24 hr prior to the HCV infection; 7) the hepatocytes were >85% confluent until the time of infection; 8) hepatocyte cultures with >5% apoptosis by annexin-V assays and/or increases>3-fold in ALT were discarded; and 9) hepatocyte media was added every 48 hr.
(§3) Total RNA was isolated from HCV infected primary human hepatocytes using the Ultraspec TM-II RNA kit from Biotecx Inc. (Texas) following the manufacturers protocol. The cDNA synthesis was performed using Stratascript RT MMuLV RNAse H free and Stratascript RT buffer (Stratagene), per manufacturers protocol, using:
(§4) PCR was performed on the cDNA using the cDNA reaction mixture with Qiagen's HotStar High Fidelity polymerase. Amplicons were run on 2% TBE agarose gels and imaged on a KODAK Imaging station.

HCV genotype 3 = experiment: as above; details: peptide 90 μM (text: picomolar), treated 4 hr after the HCV infection (FIG. 13F)
From the text: as §1, §2, §3, §4

HCV genotype 4 = experiment: as above; details: peptide 90 μM (text: picomolar), treated 4 hr after the HCV infection (FIG. 13F)
From the text: as §1, §2, §3, §4

[1] = system: HCV-infected human hepatocytes; experiment: confocal microscopy of FITC-labelled peptide: cell entry and association with HCV E2
Description: (§5) Fluorescent labels were observed using a triple-channel fluorescence microscope or a confocal microscope. Fluorochromes utilized included TOPRO-3 (blue), Alexa 488 (green) and Alexa 594 (red) (Molecular Probes). The percentage of HCV infected hepatocytes was determined by confocal microscopy using HCV E2 and core specific antibodies (Buck, et al., Mol. Cell. 8, 807 (2001); Rudel et al., Science 276, 1571 (1997). AP-50 and AP-50-phosphoT^157 were detected with specific antibodies (Zhang et al., Traffic 6, 1103 (2005); Smythe, Nature 431, 641 (2004)). At least 100 cells were analyzed per experimental point (Buck et al. EMBO J 20, 6712 (2001)). The nuclear morphology were analyzed by staining cells with TOPRO-3 ([…]). Two observers analyzed each immunofluorescent study.
(§6) Primary hepatocytes were fixed with 50/50 acetone/methanol at −20° C. for 20 minutes and allowed to air dry at room temperature. Blocking of non-specific epitopes was done with PBS+3% BSA for 30 minutes at room temperature. Primary antibodies were used at 1:100 dilutions in PBS+3% BSA, for 1 hour at room temperature washes were done with PBS. […] At least 100 cells were analyzed per experimental point. We analyzed the nuclear morphology by staining cells with TO-PRO-3 (Molecular Probes). […]

[2] = system: endogenous AP-50 phosphorylation on Thr156; experiment: confocal microscopy of AP-50 phosphoT156 in HCV-infected human hepatocyte cultures; details: HCV genotype 1-infected human hepatocyte cultures, 72 hr, epitope specific antibodies (FIG. 13D)
Description: as §5, §6

human hepatocytes = experiment: cell toxicity by release of lactic dehydrogenase (LDH) into the medium
Description: Toxicity of AP-50 peptides to human hepatocyte cultures was determined by measuring lactic dehydrogenase (Sigma) in the medium.

In the case of CC(C)[C@H](NC(=O)[C@H](CCC(N)=O)NC(=O)[C@H](CCCNC(=N)N)NC(=O)[C@H](CCCNC(=N)N)NC(=O)[C@H](CCCNC(=N)N)NC(=O)[C@H](CCC(N)=O)NC(=O)[C@H](CCCNC(=N)N)NC(=O)[C@H](CCCNC(=N)N)NC(=O)[C@H](CCCCN)NC(=O)[C@H](CCCCN)NC(=O)[C@H](CCCNC(=N)N)NC(=O)CNC(=O)[C@H](Cc1ccc(O)cc1)NC(=O)CNC(=O)CNC(=O)CNC(=O)CNC(=S)Nc1ccc2c(c1)C(=O)OC21c2ccc(O)cc2Oc2cc(O)ccc21)C(=O)N[C@@H](C)C(=O)NCC(=O)N[C@@H](CCC(N)=O)C(=O)O [AP-50 peptide] ({FITC}-GGGGYGRKKRRQRRRQVAGQ-OH; N-terminus and C-terminus assumed), the “HCV replication, detected by expression of HCV RNA” value (HCV genotype 1; peptide 90 pM, 72 hr, given at time zero of the infection (FIG. 13E)) is reported as “blocked HCV replication; also recorded: inhibited HCV replication”, the “HCV replication, detected by expression of HCV RNA at 72 hr” value (from here on “HCV replication, detected … at 72 hr”) (HCV genotype 1; peptide 90 μM (text: picomolar), treated 4 hr after the HCV infection (FIG. 13F)) is reported as “inhibited HCV replication” and the “HCV replication, detected … at 72 hr” value (HCV genotype 3) is reported as “inhibited HCV replication”. The “HCV replication, detected … at 72 hr” value (HCV genotype 4) was “inhibited HCV replication”, the “association with HCV E2 in cells (confocal microscopy, merge)” value ([1]; HCV-infected human hepatocytes, 72 hr (FIG. 13B)) was “associated with HCV E2” and the “cell permeability (intracellular FITC fluorescence)” value ([1]; human hepatocytes, 72 hr, HCV genotype 1 (FIG. 13B)) was “cell permeable; also recorded: intracellular”. The “phosphorylation of endogenous AP-50 on Thr156” value [2] was “inhibited the phosphorylation; also recorded: blocked phosphorylation”, the “LDH values / viability of HCV-infected hepatocytes treated with peptide” value (human hepatocytes; human hepatocytes infected with HCV genotypes 1, 3 or 4, 72 hr, relative to control (FIG. 14)) was “improving the viability; also recorded: normalized” and the “cellular toxicity (LDH release into the medium)” value (human hepatocytes; human hepatocytes treated with peptide for 72 hr (FIG. 14)) was “not toxic”.
